Experiments:
Test in all cases: fitness (endpoint OD595 vs no drug) (fraction); higher = more growth
S. aureus Newman = tested on: S. aureus Newman
Summary of the method: (§1)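 Cultures at OD595 0.01 were dispensed into 384-well plates in TSB, LB Lennox or CY and incubated at 37 °C. Every 30 min for 14 h, OD595 was read and corrected by the first reading. Fitness is the optical density at entry into stationary phase relative to the robust mean of no-drug control wells, capped at 1.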

S. pneumoniae D39V = tested on: S. pneumoniae D39V
Summary of the method: as §1

S. aureus DSM 20231 = tested on: S. aureus DSM 20231
Summary of the method: as §1

CO[C@@]12[C@H](COC(N)=O)C3=C(C(=O)C(C)=C(N)C3=O)N1C[C@@H]1N[C@@H]12 [Mitomycin C] + C/C(=C\C(=O)OCCCCCCCCC(=O)O)C[C@@H]1OC[C@H](C[C@@H]2O[C@H]2[C@@H](C)[C@H](C)O)[C@@H](O)[C@H]1O [Pseudomonic acid]
fitness, S. aureus Newman, one replicate
Conditions	first compound 0.0156 µg/mL	first compound 0.0312 µg/mL	first compound 0.0625 µg/mL
partner 0.0313 µg/mL	0.0474	0.0196	0.0148
partner 0.0625 µg/mL	0.0185	0.0244	0.0093
partner 0.125 µg/mL	0.0351	0.0217	0.029

fitness, S. pneumoniae D39V
Conditions	first compound 0.001075 µg/mL	first compound 0.002 µg/mL	first compound 0.00215 µg/mL	first compound 0.004 µg/mL	first compound 0.0043 µg/mL	first compound 0.008 µg/mL
partner 0.03 µg/mL	0.914	0.855	0.919	0.741	0.818	0.612
partner 0.06 µg/mL	0.806	0.725	0.795	0.64	0.731	0.523
partner 0.12 µg/mL	0.587	0.549	0.584	0.498	0.51	0.322

CO[C@@]12[C@H](COC(N)=O)C3=C(C(=O)C(C)=C(N)C3=O)N1C[C@@H]1N[C@@H]12 [Mitomycin C] + CC1(C)S[C@@H]2[C@H](NC(=O)Cc3ccccc3)C(=O)N2[C@H]1C(=O)O [Penicillin G]
fitness, S. aureus Newman
Conditions	first compound 0.0156 µg/mL	first compound 0.0312 µg/mL	first compound 0.0625 µg/mL
partner 0.0195 µg/mL	0.671	0.562	0.441
partner 0.039 µg/mL	0.646	0.556	0.389
partner 0.078 µg/mL	0.636	0.564	0.412

CO[C@@]12[C@H](COC(N)=O)C3=C(C(=O)C(C)=C(N)C3=O)N1C[C@@H]1N[C@@H]12 [Mitomycin C] + CC1=C\[C@@H](O)CC(=O)Cc2nc(co2)C(=O)N2CCC=C2C(=O)O[C@H](C(C)C)[C@H](C)/C=C/C(=O)NC\C=C\1 [Virginiamycin M1]
fitness, one replicate
Conditions	partner 0.0625 µg/mL	partner 0.125 µg/mL	partner 0.15 µg/mL	partner 0.25 µg/mL	partner 0.3 µg/mL	partner 0.5 µg/mL	partner 1 µg/mL	partner 2 µg/mL
S. aureus DSM 20231, first compound 0.0156 µg/mL	–	–	–	–	–	0.774	0.825	–
S. aureus DSM 20231, first compound 0.0312 µg/mL	–	–	–	–	–	0.681	0.701	–
S. aureus DSM 20231, first compound 0.0625 µg/mL	–	–	–	–	–	0.515	0.611	–
S. aureus Newman, first compound 0.0156 µg/mL	0.71	0.702	–	0.681	–	0.66	0.667	0.593
S. aureus Newman, first compound 0.0312 µg/mL	0.683	0.662	–	0.761	–	0.657	0.602	0.544
S. aureus Newman, first compound 0.0625 µg/mL	0.564	0.597	–	0.583	–	0.564	0.54	0.433
S. pneumoniae D39V, first compound 0.002 µg/mL	–	–	0.927	–	0.894	0.936	0.878	–
S. pneumoniae D39V, first compound 0.004 µg/mL	–	–	0.849	–	0.823	0.887	0.854	–
S. pneumoniae D39V, first compound 0.008 µg/mL	–	–	0.791	–	0.799	0.767	0.626	–

Conditions	fitness
S. aureus DSM 20231, first compound 0.0156 µg/mL, partner 0.0625 µg/mL	0.697
S. aureus DSM 20231, first compound 0.0156 µg/mL, partner 0.125 µg/mL	0.712
S. aureus DSM 20231, first compound 0.0156 µg/mL, partner 0.25 µg/mL	0.747
S. aureus DSM 20231, first compound 0.0312 µg/mL, partner 0.0625 µg/mL	0.676
S. aureus DSM 20231, first compound 0.0312 µg/mL, partner 0.125 µg/mL	0.719
S. aureus DSM 20231, first compound 0.0312 µg/mL, partner 0.25 µg/mL	0.714
S. aureus DSM 20231, first compound 0.0625 µg/mL, partner 0.0625 µg/mL	0.576
S. aureus DSM 20231, first compound 0.0625 µg/mL, partner 0.125 µg/mL	0.579
S. aureus DSM 20231, first compound 0.0625 µg/mL, partner 0.25 µg/mL	0.578
S. pneumoniae D39V, first compound 0.001075 µg/mL, partner 0.5 µg/mL	0.966
S. pneumoniae D39V, first compound 0.001075 µg/mL, partner 1 µg/mL	0.929
S. pneumoniae D39V, first compound 0.001075 µg/mL, partner 2 µg/mL	0.928
S. pneumoniae D39V, first compound 0.002 µg/mL, partner 2 µg/mL	0.808
S. pneumoniae D39V, first compound 0.00215 µg/mL, partner 0.5 µg/mL	0.945
S. pneumoniae D39V, first compound 0.00215 µg/mL, partner 1 µg/mL	0.947
S. pneumoniae D39V, first compound 0.00215 µg/mL, partner 2 µg/mL	0.905
S. pneumoniae D39V, first compound 0.004 µg/mL, partner 2 µg/mL	0.783
S. pneumoniae D39V, first compound 0.0043 µg/mL, partner 0.5 µg/mL	0.856
S. pneumoniae D39V, first compound 0.0043 µg/mL, partner 1 µg/mL	0.839
S. pneumoniae D39V, first compound 0.0043 µg/mL, partner 2 µg/mL	0.835
S. pneumoniae D39V, first compound 0.008 µg/mL, partner 2 µg/mL	0.682

CO[C@@]12[C@H](COC(N)=O)C3=C(C(=O)C(C)=C(N)C3=O)N1C[C@@H]1N[C@@H]12 [Mitomycin C] + CCC(C)C1C(=O)NC(=C)C(=O)NC(C(=O)NC(CSCC(C(=O)N1)NC(=O)/C(=C/C)/NC(=O)C(C(C)CC)N)C(=O)NC2C(SCC(NC(=O)CNC(=O)C3CCCN3C2=O)C(=O)NC(CCCCN)C(=O)NC4C(SCC(NC(=O)CNC(=O)C(NC(=O)C(NC(=O)C(NC(=O)CNC4=O)C)CC(C)C)CCSC)C(=O)NC(CC(=O)N)C(=O)NC(CCSC)C(=O)NC(CCCCN)C(=O)NC5C(SCC6C(=O)NC(C(=O)NC(CSC(C(C(=O)N6)NC(=O)C(NC5=O)C)C)C(=O)NC(CO)C(=O)NC(C(C)CC)C(=O)NC(CC7=CN=CN7)C(=O)NC(C(C)C)C(=O)NC(=C)C(=O)NC(CCCCN)C(=O)O)CC8=CN=CN8)C)C)C)CC(C)C [Nisin]
fitness, S. pneumoniae D39V, main component drawn
Conditions	first compound 0.001075 µg/mL	first compound 0.002 µg/mL	first compound 0.00215 µg/mL	first compound 0.004 µg/mL	first compound 0.0043 µg/mL	first compound 0.008 µg/mL
partner 0.4275 µg/mL	–	0.982	–	0.838	–	0.636
partner 0.855 µg/mL	–	0.943	–	0.844	–	0.538
partner 1.6 µg/mL	0.0489	–	0.0715	–	0.0313	–
partner 1.71 µg/mL	–	0.0782	–	0.0797	–	0.0351
partner 3.2 µg/mL	0.0397	–	0.038	–	0.0122	–
partner 6.4 µg/mL	0.0247	–	0.0066	–	0.0194	–

Reference: the supplement of paper PMC10627819
